# What was measured:
# K. pneumoniae BAA 2472 = assay: microbe, parasite or virus in culture; format: cell-based
# Procedure: (§1) The compounds synthesized, shown in Table 1, were evaluated against Gram-positive and Gram-negative reference strains (S. aureus 29213 and E. coli MG1655, respectively), as well as an efflux deficient E. coli strain (ΔtolC, JW5503).
# (§2) Bacterial strains. S. aureus ATCC 29213, E. coli MG1655, E. coli BAA-2340, E. coli BAA-2469, E. coli BAA-2471, E. cloacae BAA-2341, E. cloacae BAA-2468, K. pneumoniae BAA-1705, K. pneumoniae BAA-2342, K. pneumoniae BAA-2470, K. pneumoniae BAA-2472, and K. pneumoniae BAA-2473 were obtained from ATCC. E. coli JW5503 and E. coli JW3596 were obtained from the KEIO Collection. E. cloacae ATCC 29893 was provided by W. van der Donk (UIUC). E. coli AR-0346, E. coli AR-0349, E. coli AR-0493, E. coli AR-0495, and K. pneumoniae AR-0347 were obtained from the CDC and FDA AR Isolate Bank. E. coli F20987, E. coli M66623, E. cloacae S28901.1, K. pneumoniae M14723, K. pneumoniae M67198, K. pneumoniae M67297, K. pneumoniae S20595, K. pneumoniae S47889, A. baumannii W41979, A. baumannii F19521, A. baumannii M13100, and A. baumannii WO22 were obtained from the University of Illinois Chicago Medical School. A. baumannii KB304, A. baumannii KB343, and A. baumannii KB357 were provided by J. Quale.
# (§3) Antimicrobial susceptibility tests. Susceptibility testing was performed in biological triplicate, using the micro-dilution broth method as outlined by the Clinical and Laboratory Standards Institute. Bacteria were cultured with cation-adjusted Muller-Hinton broth (Sigma-Aldrich, Cat# 90922) in round-bottom 96-well plates (Corning, Cat# 3788). Human serum (pooled gender, 0.2 μm filtered) was purchased from BioIVT (Hicksville, NY).
# A. baumannii AR 0033 = assay: microbe, parasite or virus in culture; format: cell-based
# Procedure: as §3
# A. baumannii AR 0313 = assay: microbe, parasite or virus in culture; format: cell-based
# Procedure: as §3
# K. pneumoniae AR 0066 = assay: microbe, parasite or virus in culture; format: cell-based
# Procedure: as §3
# E. coli AR 0048 = assay: microbe, parasite or virus in culture; format: cell-based
# Procedure: as §3
# K. pneumoniae AR 0113 = assay: microbe, parasite or virus in culture; format: cell-based
# Procedure: as §3
# A. baumannii AR 0273 = assay: microbe, parasite or virus in culture; format: cell-based
# Procedure: as §3
# A. baumannii AR 0299 = assay: microbe, parasite or virus in culture; format: cell-based
# Procedure: as §3
# K. pneumoniae AR 0560 = assay: microbe, parasite or virus in culture; format: cell-based
# Procedure: as §3
# E. coli AR 0085 = assay: microbe, parasite or virus in culture; format: cell-based
# Procedure: as §3
# [1] = system: two E. coli, four K. pneumoneia, and four A. baumannii strains; assay: MIC against Gram-negative clinical isolate challenge panel (ten isolates); format: cell-based
# Procedure: as §1, §3
# E. coli ΔtolC (JW5503) = format: cell-based; conditions: efflux deficient E. coli ΔtolC
# Procedure: as §1, §2, §3
# E. coli MG1655 = assay: Antimicrobial susceptibility test (MIC); format: cell-based
# From the text: as §2, §3
# S. aureus ATCC 29213 = assay: Antimicrobial susceptibility test (MIC), micro-dilution broth; format: cell-based; conditions: S. aureus ATCC 29213
# From the text: as §2, §3
# Plasma protein binding [2] = conditions: mouse, plasma
# A. baumannii FabI = A. baumannii FabI (Acinetobacter baumannii, UniProt D0CAD5); assay: biochemical
# Procedure: (§4) Mode of Action. To probe the effects of varying ring systems and amine placement on FabI target engagement, the apparent inhibition constants (Ki^app) for select compounds were determined using purified FabI. The goal of these studies was two-fold, to comparatively assess fabimycin, Debio-1452-NH3, and Debio-1452, and to also assess differential activity against the E. coli and A. baumannii versions of FabI. FabI from E. coli and A. baumannii were recombinantly expressed and purified, and the ability for each compound to inhibit the activity of these enzymes was evaluated using a standard FabI enzyme assay.
# In vitro FabI inhibition assay. NADH (Sigma-Aldrich, Cat# N8129) and crotonoyl-CoA (Sigma-Aldrich, Cat# 28007) were both diluted into activity buffer [100 mM potassium glutamate (pH 7.8)], and working solution was dispensed into two columns of round-bottom 96-well plate (330 μL per well). Inhibitors, dissolved in DMSO at 200× final concentration, were added to each well via multichannel pipette (2.48 μL per well). After thorough mixing, this mixture was transferred to UV-transparent plate (UV-STAR half-area 96-well plate, Greiner Bio-One, Cat#675801, 100 μL per well, three technical replicates per inhibitor concentration). Plate was placed in plate-reader (SpectraMax 190, Molecular Devices) under temperature control (25° C.), and temperature was allowed to equilibrate. Fresh aliquot of enzyme from −80° C. was thawed on ice and diluted in activity buffer. Enzyme working solution was added to plate (50 μL per well, 20 nM enzyme final). After shaking for 5 s, reaction progress was monitored by absorbance at 340 nm every 15 s for 90 min. Linear portion of reaction progress curve was fit using plate-reader software (SoftMax Pro 7.0). Percent activity was calculated relative to DMSO-only and no-enzyme controls in each plate. Percent activity curves were fit to Morrison's quadratic using Graphpad Prism 6.0 to obtain apparent Ki.
# HERG = HERG (Homo sapiens (Human), UniProt Q12809); assay: cell-based
# H. sapiens HFF-1 = assay: In-vitro cytotoxicity; format: cell-based
# E. coli FabI = E. coli FabI (Escherichia coli (strain K12), UniProt P0AEK4); assay: In vitro FabI inhibition assay; format: biochemical
# Procedure: as §4
# In vitro FabI inhibition assay. NADH (Sigma-Aldrich, Cat# N8129) and crotonoyl-CoA (Sigma-Aldrich, Cat# 28007) were both diluted into activity buffer [100 mM potassium glutamate (pH 7.8)], and working solution was dispensed into two columns of round-bottom 96-well plate (330 μL per well). […] Plate was placed in plate-reader (SpectraMax 190, Molecular Devices) under temperature control (25° C.), and temperature was allowed to equilibrate. […] After shaking for 5 s, reaction progress was monitored by absorbance at 340 nm every 15 s for 90 min. Linear portion of reaction progress curve was fit using plate-reader software (SoftMax Pro 7.0). Percent activity was calculated relative to DMSO-only and no-enzyme controls in each plate. […]
# Plasma protein binding [3] = conditions: human, plasma
# H. sapiens A549 = assay: In-vitro cytotoxicity; format: cell-based
# Hep G2 = assay: Toxicity screen against mammalian cell lines (72 h); format: cell-based
# IMR90 = assay: Toxicity screen against mammalian cell lines (72 h), Alamar Blue; format: cell-based
# Procedure: Cell culture. IMR90 cells were obtained from ATCC. IMR90 cells were grown in EMEM with 10% fetal bovine serum (Gemini Benchmark, Cat# 100-106), 100 U/mL penicillin, and 100 μg/mL streptomycin. All cells were cultured at 37° C. in a 5% CO2 environment. Media was prepared by the Univeristy of Illinois School of Chemical Sciences Cell Media Facility. Sex and age of cell lines: IMR90 ([…]).
# Cell viability. Cells seeded (IMR90: 5,000 cells/well) a 96-well plate (Greiner Bio-One, Cat# 655180) and were allowed to attach overnight. […] Raptinal (100 μM) was used as a dead control. After 24 h post-treatment, media was exchanged with compound-free media. […] Stock Alamar Blue solution [10 μL, 440 μM resazurin (Sigma-Aldrich, Cat# R7017) in sterile 1×PBS] was added to each well, and plate was incubated […]. Conversion of Alamar Blue was measured with plate reader (SpectraMax M3, Molecular Devices) by fluorescence (ex 555 nm, em 585 nm, cutoff 570 nm, autogain). Percent death was determined by normalizing to DMSO-treated cells and raptinal-treated cells.
# [4] = Maximal tolerated dose (MTD) in mice
# Procedure: Mouse MTD of Debio-1452-NH3. The protocol was approved by the IACUC at the University of Illinois at Urbana-Champaign (Protocol Number:16144). In these studies, 10- to 12-week-old female C57BL/6 mice purchased from Charles River were used. The maximum tolerate dose (MTD) of single compound was determined first. Debio-1452 amine analogues were formulated in 20% sulfobutyl ether β-cyclodextrin in sterile water. Debio-1452-NH3 (1), and compounds 2 and 3 were given by IP injection and mice were monitored for signs of toxicity for 2 weeks (single dose). For multiple dose, the compound was given by daily IP for 5 consecutive days and mice were monitored for signs of toxicity for 1 month. MTD was the highest dosage with acceptable toxicity (e.g. <20% weight loss). Single dose MTDs were initially determined. […] The MTD of Debio-1452-NH3 (1) was used to inform the dosing schedule used in subsequent efficacy studies.
# [5] = female, C57BL/6, mouse, in vivo
# E. coli FabI, sequence (P0AEK4 whole entry): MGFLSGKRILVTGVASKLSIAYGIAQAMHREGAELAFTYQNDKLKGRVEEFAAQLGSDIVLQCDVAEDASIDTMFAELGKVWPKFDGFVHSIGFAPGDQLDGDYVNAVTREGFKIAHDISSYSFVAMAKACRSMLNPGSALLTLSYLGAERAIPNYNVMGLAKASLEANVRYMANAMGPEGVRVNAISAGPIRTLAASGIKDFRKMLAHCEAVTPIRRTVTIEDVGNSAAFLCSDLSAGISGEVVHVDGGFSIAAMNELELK
# A. baumannii FabI, sequence (D0CAD5 1-288): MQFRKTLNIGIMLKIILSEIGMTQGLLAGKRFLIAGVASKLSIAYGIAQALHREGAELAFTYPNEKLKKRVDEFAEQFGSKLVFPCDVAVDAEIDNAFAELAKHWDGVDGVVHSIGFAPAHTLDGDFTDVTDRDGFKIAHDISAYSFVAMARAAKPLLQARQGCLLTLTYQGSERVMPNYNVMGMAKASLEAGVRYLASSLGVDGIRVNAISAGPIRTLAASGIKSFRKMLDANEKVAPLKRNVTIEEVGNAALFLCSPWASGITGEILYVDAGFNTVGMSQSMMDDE
# HERG, sequence (Q12809 whole entry): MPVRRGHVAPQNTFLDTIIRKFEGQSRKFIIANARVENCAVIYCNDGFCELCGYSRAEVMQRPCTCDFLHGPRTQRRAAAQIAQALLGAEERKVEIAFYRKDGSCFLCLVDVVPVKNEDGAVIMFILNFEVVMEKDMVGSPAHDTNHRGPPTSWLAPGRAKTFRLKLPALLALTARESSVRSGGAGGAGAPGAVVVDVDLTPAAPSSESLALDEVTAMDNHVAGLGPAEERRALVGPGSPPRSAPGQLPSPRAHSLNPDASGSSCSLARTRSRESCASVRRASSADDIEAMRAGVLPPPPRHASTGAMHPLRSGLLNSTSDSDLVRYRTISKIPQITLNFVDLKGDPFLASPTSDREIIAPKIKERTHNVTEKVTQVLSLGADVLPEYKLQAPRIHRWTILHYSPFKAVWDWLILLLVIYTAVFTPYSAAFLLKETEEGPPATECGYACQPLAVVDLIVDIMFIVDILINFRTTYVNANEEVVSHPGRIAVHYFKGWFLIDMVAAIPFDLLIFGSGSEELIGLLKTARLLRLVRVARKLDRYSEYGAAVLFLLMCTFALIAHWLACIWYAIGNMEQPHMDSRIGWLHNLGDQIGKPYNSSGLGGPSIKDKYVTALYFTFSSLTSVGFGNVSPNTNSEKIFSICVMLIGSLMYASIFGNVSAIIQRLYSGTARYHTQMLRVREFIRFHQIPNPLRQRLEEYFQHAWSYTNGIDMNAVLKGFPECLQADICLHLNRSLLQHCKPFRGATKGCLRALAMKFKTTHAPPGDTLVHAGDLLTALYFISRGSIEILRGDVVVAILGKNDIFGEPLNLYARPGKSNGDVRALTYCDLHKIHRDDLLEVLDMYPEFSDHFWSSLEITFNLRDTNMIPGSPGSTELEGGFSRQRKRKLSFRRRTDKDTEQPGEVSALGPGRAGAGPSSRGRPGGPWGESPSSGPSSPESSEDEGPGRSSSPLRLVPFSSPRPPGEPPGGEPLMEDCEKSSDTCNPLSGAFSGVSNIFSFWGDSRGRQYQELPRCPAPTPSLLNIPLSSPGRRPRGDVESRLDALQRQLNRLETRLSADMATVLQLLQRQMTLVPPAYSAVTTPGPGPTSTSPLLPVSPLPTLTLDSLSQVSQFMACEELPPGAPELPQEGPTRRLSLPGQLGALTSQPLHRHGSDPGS
structure (smiles),measurement,setting,value
Cc1c(CN(C)C(=O)/C=C/c2cnc3c(c2)CCC(N)C(=O)N3)oc2ccccc12 (racemic) [(±)-11],MIC K. pneumoniae BAA 2472,K. pneumoniae BAA 2472; clinical isolate,8 µg/mL
same,MIC A. baumannii AR 0033,A. baumannii AR 0033; clinical isolate,4 µg/mL
same,MIC A. baumannii AR 0313,A. baumannii AR 0313; clinical isolate,8 µg/mL
same,MIC K. pneumoniae AR 0066,K. pneumoniae AR 0066; clinical isolate,8 µg/mL
same,MIC E. coli AR 0048,E. coli AR 0048; clinical isolate,4 µg/mL
same,MIC K. pneumoniae AR 0113,K. pneumoniae AR 0113; clinical isolate,8 µg/mL
same,MIC A. baumannii AR 0273,A. baumannii AR 0273; clinical isolate,8 µg/mL
same,MIC A. baumannii AR 0299,A. baumannii AR 0299; clinical isolate,4 µg/mL
same,MIC K. pneumoniae AR 0560,K. pneumoniae AR 0560; clinical isolate,8 µg/mL
same,MIC E. coli AR 0085,E. coli AR 0085; clinical isolate,4 µg/mL
same,concentration at which all strains of the clinical isolate challenge panel are inhibited,[1],≤ 8 µg/mL
same,MIC E. coli ΔtolC,E. coli ΔtolC (JW5503),0.031 µg/mL
same,MIC E. coli MG1655,E. coli MG1655; E. coli MG1655,4 µg/mL
same,MIC S. aureus 29213,S. aureus ATCC 29213,0.016 µg/mL
"Cc1c(CN(C)C(=O)/C=C/c2cnc3c(c2)CC(N)C(=O)N3)oc2ccccc12 (racemic) [Debio-1452-NH3, (E)-3-(6-amino-7-oxo-5,6,7,8-tetrahydro-1,8-naphthyridin-3-yl)-N-methyl-N-((3-methylbenzofuran-2-yl)methyl)acrylamide]",fraction unbound,Plasma protein binding [2],0.055
same,Ki,A. baumannii FabI,0.114 µM
same,IC50,HERG,5.7 µM
same,inhibition at 30 µM,H. sapiens HFF-1,11 ± 2%
same,IC50,H. sapiens HFF-1; cytotoxicity,63 ± 33 µM
same,Ki,E. coli FabI,0.0035 ± 0.0005 µM
same,fraction unbound,Plasma protein binding [3],0.107
same,inhibition at 30 µM,H. sapiens A549,29 ± 4%
same,IC50,H. sapiens A549; cytotoxicity,68 ± 4 µM
"Cc1c(CN(C)C(=O)/C=C/c2cnc3c(c2)CC(N)C(=O)N3)oc2ccccc12.Cl (stereo not drawn) [Debio-1452-NH3, (E)-3-(6-amino-7-oxo-5,6,7,8-tetrahydro-1,8-naphthyridin-3-yl)-N-methyl-N-((3-methylbenzofuran-2-yl)methyl)acrylamide, reference compound]",MIC,"K. pneumoniae BAA 2472; Klebsiella pneumoniae, BAA2472, read-out: MIC K. pneumoniae BAA 2472, clinical isolate",16 µg/mL
same,Hep G2 % Cell Death,Hep G2; 30 μM,29 ± 8%
same,Hep G2 % Cell Death,Hep G2; 100 μM,77 ± 3%
same,IMR90 % Cell Death,IMR90; 30 μM,18 ± 4%
same,IMR90 % Cell Death,IMR90; 100 μM,69 ± 5%
same,MIC,"A. baumannii AR 0033; Acinetobacter baumannii, AR0033, read-out: MIC A. baumannii AR 0033, clinical isolate",32 µg/mL
same,MIC,"A. baumannii AR 0313; Acinetobacter baumannii, AR0313, read-out: MIC A. baumannii AR 0313, clinical isolate",32 µg/mL
same,MIC,"K. pneumoniae AR 0066; Klebsiella pneumoniae, AR0066, read-out: MIC K. pneumoniae AR 0066, clinical isolate",32 µg/mL
same,MIC,"E. coli AR 0048; Escherichia coli, AR0048, read-out: MIC E. coli AR 0048, clinical isolate",32 µg/mL
same,MIC,"K. pneumoniae AR 0113; Klebsiella pneumoniae, AR0113, read-out: MIC K. pneumoniae AR 0113, clinical isolate",32 µg/mL
same,MIC,"A. baumannii AR 0273; Acinetobacter baumannii, AR0273, read-out: MIC A. baumannii AR 0273, clinical isolate",32 µg/mL
same,MIC,"A. baumannii AR 0299; Acinetobacter baumannii, AR0299, read-out: MIC A. baumannii AR 0299, clinical isolate",32 µg/mL
same,MIC,"K. pneumoniae AR 0560; Klebsiella pneumoniae, AR0560, read-out: MIC K. pneumoniae AR 0560, clinical isolate",32 µg/mL
same,MIC,"E. coli AR 0085; Escherichia coli, AR0085, read-out: MIC E. coli AR 0085, clinical isolate",16 µg/mL
same,well tolerated daily dosing for 5 consecutive days,"[4]; daily IP, 5 consecutive days, female C57BL/6 mice",50 mg/kg
same,MTD at 2 weeks,[4]; [5],50 mg/kg
same,MTD at 5 d,[4]; [5],50 mg/kg
same,Multi-day single-dose MTD,"[4]; female, C57BL/6, mouse, in vivo, 5 d","50 mg/kg, 5 d"
same,MTD at 2 weeks,"[4]; female, C57BL/6, mouse, in vivo, ip",50 mg/kg
same,MIC E. coli ΔtolC,E. coli ΔtolC (JW5503),0.062 µg/mL
same,MIC,"E. coli MG1655; Escherichia coli, MG1655",4 µg/mL
same,MIC,"S. aureus ATCC 29213; Staphylococcus aureus, ATCC29213, read-out: MIC S. aureus 29213",0.031 µg/mL

# Source: US20240190872A1, “FABI INHIBITORS FOR GRAM-NEGATIVE PATHOGENS” (THE BOARD OF TRUSTEES OF THE UNIVERSITY OF ILLINOIS, priority 2021, published 2024)
